Measured values as given in patent publication US20260069571A1, “DDR1 AND DDR2 INHIBITORS FOR THE TREATEMENT OF CANCER AND FIBROTIC DISEASES” (REDX PHARMA PLC, priority 2021, published 2026).

How the values were obtained:
Recombinant human DDR1 = Recombinant human DDR1 (Homo sapiens (Human), UniProt Q08345); test: LanthaScreen Eu Kinase Binding Assay, DDR1; conditions: DDR1 2.5 nM (aa440-876, GST tag), Kinase Tracer 178 5 nM; for IC50: read-out: DDR1 pIC50 (converted)
Protocol: (§1) DDR1 and DDR2 Biochemical Assay Method
(§2) The capacity of compounds to bind to DDR1 and DDR2 was quantified using a LanthaScreen Eu Kinase Binding Assay. Recombinant human DDR1 (2.5 nM; aa440-876 containing a GST tag) and DDR2 (1.75 nM; aa427-855 containing a GST tag) were diluted in assay buffer (50 mM HEPES pH7.3, 10 mM MgCl2, 1 mM EGTA and 0.01% Tween) with various concentrations of compound in a 384-well plate and a volume of 5 uL. After a 30-minute incubation at room temperature, 2.5 uL of Eu-anti GST antibody (diluted to 1 nM in assay buffer) plus Kinase Tracer 178 (diluted in assay buffer to 5 nM for DDR1 and 10 nM for DDR2) were added to the plate. Following 60-minute incubation at room temperature, time-resolved fluorescence was measured on a BMG Labtech PHERAstar plate reader. DMSO (1%) and reference compound (1 μM) were used to generate the Max and Min assay signals, respectively. Data was analysed using a four-parameter logistic model to calculate IC50 values, with at least two independent replicates were performed for each compound.

Recombinant human DDR2 = Recombinant human DDR2 (Homo sapiens (Human), UniProt Q16832); test: LanthaScreen Eu Kinase Binding Assay, DDR2; conditions: DDR2 1.75 nM (aa427-855, GST tag), Kinase Tracer 178 10 nM; for IC50: read-out: DDR2 pIC50 (converted)
Protocol: as §1, §2

Chain of Recombinant human DDR1 (Q08345 other isoform, or with tags, fused parts or gaps): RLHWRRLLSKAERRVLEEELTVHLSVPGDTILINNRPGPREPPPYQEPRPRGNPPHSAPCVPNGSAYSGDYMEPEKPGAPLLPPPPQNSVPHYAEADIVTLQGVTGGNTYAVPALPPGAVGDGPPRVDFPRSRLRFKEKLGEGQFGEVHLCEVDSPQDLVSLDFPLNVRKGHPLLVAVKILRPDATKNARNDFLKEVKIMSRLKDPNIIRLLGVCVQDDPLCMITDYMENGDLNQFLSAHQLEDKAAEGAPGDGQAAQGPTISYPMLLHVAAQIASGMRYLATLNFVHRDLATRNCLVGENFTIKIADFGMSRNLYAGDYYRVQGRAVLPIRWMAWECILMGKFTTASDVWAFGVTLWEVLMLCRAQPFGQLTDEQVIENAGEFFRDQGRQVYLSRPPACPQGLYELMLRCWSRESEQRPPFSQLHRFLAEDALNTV
Chain of Recombinant human DDR2 (Q16832 427-855): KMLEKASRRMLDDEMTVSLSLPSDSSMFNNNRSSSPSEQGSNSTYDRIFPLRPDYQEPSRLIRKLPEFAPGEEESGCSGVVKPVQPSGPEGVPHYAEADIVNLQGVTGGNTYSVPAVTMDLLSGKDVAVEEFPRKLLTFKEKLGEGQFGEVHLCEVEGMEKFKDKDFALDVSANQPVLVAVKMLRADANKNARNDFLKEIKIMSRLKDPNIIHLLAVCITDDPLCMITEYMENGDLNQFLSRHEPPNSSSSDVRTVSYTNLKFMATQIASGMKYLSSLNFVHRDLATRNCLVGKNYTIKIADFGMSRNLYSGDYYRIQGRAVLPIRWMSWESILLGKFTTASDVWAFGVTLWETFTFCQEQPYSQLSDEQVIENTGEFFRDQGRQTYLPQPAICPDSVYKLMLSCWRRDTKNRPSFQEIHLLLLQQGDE

**Q.** How did the IC50 (Recombinant human DDR1) turn out when `Cn1ncc2cc(Nc3cccc4c3C(=O)N(CC(=O)NCC(F)(F)F)C4)ccc21` [Example 1, 2-[7-[(1-Methylindazol-5-yl)amino]-1-oxo-isoindolin-2-yl]-N-(2,2,2-trifluoroethyl) acetamide] was run?
**A.** < 10 nM

**Q.** And the IC50 (Recombinant human DDR2)?
**A.** 10 to 100 nM

**Q.** For `C[C@H](NC(=O)CN1Cc2cccc(Nc3ccc4c(cnn4C)c3)c2C1=O)C(F)(F)F` [Example 2, 2-[7-[(1-Methylindazol-5-yl)amino]-1-oxo-isoindolin-2-yl]-N-[(1S)-2,2,2-trifluoro-1-methyl-ethyl]acetamide], which “DDR1 pIC50” value (Recombinant human DDR1) is on record?
**A.** A (pIC50>8)

**Q.** What about the “DDR2 pIC50” value (Recombinant human DDR2) of the same compound?
**A.** A (pIC50>8)

**Q.** How did the IC50 (Recombinant human DDR1) turn out when `Cn1ncc2cc(Nc3cccc4c3C(=O)N(CC(=O)N3CCC[C@H]3C(F)(F)F)C4)ccc21` [Example 3, 7-[(1-Methylindazol-5-yl)amino]-2-[2-oxo-2-[(2S)-2-(trifluoromethyl)pyrrolidin-1-yl]ethyl]isoindolin-1-one] was run?
**A.** < 10 nM

**Q.** And the IC50 (Recombinant human DDR2)?
**A.** < 10 nM

**Q.** What does the source list for `Cn1ncc2cc(Nc3cccc4c3C(=O)N(CC(=O)Nc3cnoc3)C4)ccc21` [Example 4, N-isoxazol-4-yl-2-[7-[(1-methylindazol-5-yl)amino]-1-oxo-isoindolin-2-yl]acetamide]?
**A.** DDR1 pIC50 (Recombinant human DDR1): A (pIC50>8); DDR2 pIC50 (Recombinant human DDR2): A (pIC50>8)

**Q.** How did the “DDR1 pIC50” value (Recombinant human DDR1) turn out when `Cn1ncc2cc(Nc3cccc4c3C(=O)N(CC(=O)Nc3cccc(C(F)(F)F)c3)C4)ccc21` [Example 5, 2-{7-[(1-methyl-1H-indazol-5-yl)amino]-1-oxo-2,3-dihydro-1H-isoindol-2-yl}-N-[3-(trifluoromethyl)phenyl]acetamide] was run?
**A.** A (pIC50>8)

**Q.** What about the IC50 (Recombinant human DDR2) of the same compound?
**A.** 10 to 100 nM

**Q.** With `Cn1ncc2cc(Nc3cccc4c3C(=O)N(CC(=O)NCC(F)(F)F)C4(C)C)ccc21` [Example 7, 2-[1,1-dimethyl-4-[(1-methylindazol-5-yl)amino]-3-oxo-isoindolin-2-yl]-N-(2,2,2-trifluoroethyl)acetamide] as the compound, how does the IC50 (Recombinant human DDR1) read?
**A.** 100 to 1000 nM

**Q.** And the “DDR2 pIC50” value (Recombinant human DDR2)?
**A.** D (pIC50≤6)

**Q.** What does the source list for `CN(c1ccc2c(cnn2C)c1)c1cccc2c1C(=O)N(CC(=O)NCC(F)(F)F)C2` [Example 8, 2-[7-[methyl-(1-methylindazol-5-yl)amino]-1-oxo-isoindolin-2-yl]-N-(2,2,2-trifluoroethyl)acetamide]?
**A.** IC50 (Recombinant human DDR1): 10 to 100 nM; IC50 (Recombinant human DDR2): 10 to 100 nM

**Q.** What does the source list for `Cn1ncc2cc(Nc3cccc4c3C(=O)N(CC(=O)NCC(F)(F)F)C4)cnc21` [Example 9, 2-[7-[(1-methylpyrazolo[3,4-b]pyridin-5-yl)amino]-1-oxo-isoindolin-2-yl]-N-(2,2,2-trifluoroethyl)acetamide]?
**A.** IC50 (Recombinant human DDR1): 10 to 100 nM; IC50 (Recombinant human DDR2): 100 to 1000 nM

**Q.** Which “DDR1 pIC50” value (Recombinant human DDR1) does the source give for `Cn1ncc2cc(Nc3cccc4c3C(=O)N(CC(=O)Nc3cccc(C(C)(C)O)c3)C4)ccc21` [Example 10, N-[3-(1-hydroxy-1-methyl-ethyl)phenyl]-2-[7-[(1-methylindazol-5-yl)amino]-1-oxo-isoindolin-2-yl]acetamide] here?
**A.** A (pIC50>8)

**Q.** What about the IC50 (Recombinant human DDR2) of the same compound?
**A.** 10 to 100 nM

**Q.** What does the source list for `Cc1cc(Nc2cccc3c2C(=O)N(CC(=O)NCC(F)(F)F)C3)cc2cn[nH]c12` [Example 11, 2-[7-[(7-methyl-1H-indazol-5-yl)amino]-1-oxo-isoindolin-2-yl]-N-(2,2,2-trifluoroethyl)acetamide]?
**A.** DDR1 pIC50 (Recombinant human DDR1): A (pIC50>8); DDR2 pIC50 (Recombinant human DDR2): A (pIC50>8)

**Q.** How did the IC50 (Recombinant human DDR2) turn out when `Cn1ncc2cc(Nc3cccc4c3C(=O)N(CC(=O)N3CCCC(C(F)(F)F)C3)C4)ccc21` (centres unmarked) [Example 12] was run?
**A.** 10 to 100 nM

**Q.** Which results are given for `CN(C)Cc1ccc(NC(=O)CN2Cc3cccc(Nc4ccc5c(cnn5C)c4)c3C2=O)cc1C(F)(F)F` [Example 13, N-[4-[(dimethylamino)methyl]-3-(trifluoromethyl)phenyl]-2-[7-[(1-methylindazol-5-yl)amino]-1-oxo-isoindolin-2-yl]acetamide]?
**A.** DDR1 pIC50 (Recombinant human DDR1): A (pIC50>8); IC50 (Recombinant human DDR2): 10 to 100 nM

**Q.** `Cn1ncc2cc(Nc3cccc4c3C(=O)N(CC(=O)N3CCCC[C@H]3C(F)(F)F)C4)ccc21` [Example 14, 7-[(1-methylindazol-5-yl)amino]-2-[2-oxo-2-[(2S)-(trifluoromethyl)-1-piperidyl]ethyl]isoindolin-1-one] was tested. Which IC50 (Recombinant human DDR1) did it give?
**A.** < 10 nM

**Q.** And the IC50 (Recombinant human DDR2)?
**A.** < 10 nM

**Q.** What does the source list for `CC1c2cccc(Nc3ccc4c(cnn4C)c3)c2C(=O)N1CC(=O)NCC(F)(F)F` (centres unmarked) [Example 15, 2-[1-methyl-4-[(1-methylindazol-5-yl)amino]-3-oxo-isoindolin-2-yl]-N-(2,2,2-trifluoroethyl)acetamide]?
**A.** IC50 (Recombinant human DDR1): 10 to 100 nM; IC50 (Recombinant human DDR2): 10 to 100 nM

**Q.** For `Cn1ncc2cc(Nc3cccc4c3C(=O)N(CC(=O)N3CCC[C@H]3C(F)F)C4)ccc21` [Example 16, 2-[2-[(2S)-(difluoromethyl)pyrrolidin-1-yl]-2-oxo-ethyl]-7-[(1-methylindazol-5-yl)amino]isoindolin-1-one], which IC50 (Recombinant human DDR1) is on record?
**A.** < 10 nM

**Q.** And the IC50 (Recombinant human DDR2)?
**A.** < 10 nM

**Q.** `Cn1ncc2cc(Nc3cccc4c3C(=O)N(CC(=O)N3CC(C(F)(F)F)C3)C4)ccc21` [Example 18, 7-[(1-methylindazol-5-yl)amino]-2-[2-oxo-2-[3-(trifluoromethyl)73zetidine-1-yl]ethyl]isoindolin-1-one] was tested. Which IC50 (Recombinant human DDR1) did it give?
**A.** 10 to 100 nM

**Q.** What about the IC50 (Recombinant human DDR2) of the same compound?
**A.** 100 to 1000 nM

**Q.** Which IC50 (Recombinant human DDR1) does the source give for `Cn1ncc2cc(Nc3cccc4c3C(=O)N(CC(=O)N3CC(F)(F)C3)C4)ccc21` [Example 19, 2-[2-(3,3-difluoroazetidin-1-yl)-2-oxo-ethyl]-7-[(1-methylindazol-5-yl)amino]isoindolin-1-one] here?
**A.** 100 to 1000 nM

**Q.** And the IC50 (Recombinant human DDR2)?
**A.** 100 to 1000 nM

**Q.** Which “DDR1 pIC50” value (Recombinant human DDR1) does the source give for `CN(C)Cc1cc(NC(=O)CN2Cc3cccc(Nc4ccc5c(cnn5C)c4)c3C2=O)cc(C(F)(F)F)c1` [Example 20, N-[3-[(dimethylamino)methyl]-5-(trifluoromethyl)phenyl]-2-[7-[(1-methylindazol-5-yl)amino]-1-oxo-isoindolin-2-yl]acetamide] here?
**A.** A (pIC50>8)

**Q.** What about the IC50 (Recombinant human DDR2) of the same compound?
**A.** 10 to 100 nM

**Q.** Which results are given for `O=C(CN1Cc2cccc(Nc3ccc4[nH]ncc4c3)c2C1=O)NCC(F)(F)F` [Example 21, 2-[7-(1H-indazol-5-ylamino)-1-oxo-isoindolin-2-yl]-N-(2,2,2-trifluoroethyl)acetamide]?
**A.** DDR1 pIC50 (Recombinant human DDR1): A (pIC50>8); IC50 (Recombinant human DDR2): 10 to 100 nM

**Q.** `O=C(CN1Cc2cccc(Nc3cnc4[nH]ncc4c3)c2C1=O)NCC(F)(F)F` [Example 22, 2-[1-oxo-7-(1H-pyrazolo[3,4-b]pyridin-5-ylamino)isoindolin-2-yl]-N-(2,2,2-trifluoroethyl)acetamide] was tested. Which IC50 (Recombinant human DDR1) did it give?
**A.** 10 to 100 nM

**Q.** What about the “DDR2 pIC50” value (Recombinant human DDR2) of the same compound?
**A.** D (pIC50≤6)

**Q.** Which results are given for `Cn1ncc2cc(Nc3cccc4c3C(=O)N(CC(=O)Nc3cccc(C(C)(C)N)c3)C4)ccc21` [Example 23, N-[3-(1-amino-1-methyl-ethyl)phenyl]-2-[7-[(1-methylindazol-5-yl)amino]-1-oxo-isoindolin-2-yl]acetamide]?
**A.** IC50 (Recombinant human DDR1): 10 to 100 nM; IC50 (Recombinant human DDR2): 10 to 100 nM

**Q.** For `Cn1ncc2cc(Nc3cccc4c3C(=O)N(CC(=O)NC3CC3(F)F)C4)ccc21` (centres unmarked) [Example 24, N-(2,2-difluorocyclopropyl)-2-[7-[(1-methylindazol-5-yl)amino]-1-oxo-isoindolin-2-yl]acetamide], which “DDR1 pIC50” value (Recombinant human DDR1) is on record?
**A.** A (pIC50>8)

**Q.** And the IC50 (Recombinant human DDR2)?
**A.** 10 to 100 nM

**Q.** Which IC50 (Recombinant human DDR1) does the source give for `Cn1ncc2cc(Nc3cccc4c3C(=O)N(CC(=O)N3CCOC(C(F)(F)F)C3)C4)ccc21` (centres unmarked) [Example 26, 7-[(1-methylindazol-5-yl)amino]-2-[2-oxo-2-[2-(trifluoromethyl)morpholin-4-yl]ethyl]isoindolin-1-one] here?
**A.** 10 to 100 nM

**Q.** What about the IC50 (Recombinant human DDR2) of the same compound?
**A.** 10 to 100 nM

**Q.** `Cn1ncc2cc(Nc3cccc4c3C(=O)N(CC(=O)NCC(F)(F)F)C4)cc(Cl)c21` [Example 27, 2-[7-[(7-chloro-1-methyl-indazol-5-yl)amino]-1-oxo-isoindolin-2-yl]-N-(2,2,2-trifluoroethyl)acetamide] was tested. Which “DDR1 pIC50” value (Recombinant human DDR1) did it give?
**A.** A (pIC50>8)

**Q.** And the “DDR2 pIC50” value (Recombinant human DDR2)?
**A.** A (pIC50>8)

**Q.** Which “DDR1 pIC50” value (Recombinant human DDR1) does the source give for `Cc1n[nH]c2cc(Nc3cccc4c3C(=O)N(CC(=O)N[C@@H](C)C(F)(F)F)C4)ccc12` [Example 28, 2-[7-[(3-methyl-1H-indazol-6-yl)amino]-1-oxo-isoindolin-2-yl]-N-[(1S)-2,2,2-trifluoro-1-methyl-ethyl]acetamide] here?
**A.** A (pIC50>8)

**Q.** And the “DDR2 pIC50” value (Recombinant human DDR2)?
**A.** A (pIC50>8)

**Q.** `Cc1n[nH]c2cc(Nc3cccc4c3C(=O)N(CC(=O)N3CCC[C@H]3C(F)(F)F)C4)ccc12` [Example 29, 7-[(3-methyl-1H-indazol-6-yl)amino]-2-[2-oxo-2-[(2S)-(trifluoromethyl)77yrrolidine-1-yl]ethyl]isoindolin-1-one] was tested. Which IC50 (Recombinant human DDR1) did it give?
**A.** < 10 nM

**Q.** What about the IC50 (Recombinant human DDR2) of the same compound?
**A.** < 10 nM

**Q.** What does the source list for `Cc1n[nH]c2cc(Nc3cccc4c3C(=O)N(CC(=O)NCC(F)(F)F)C4)cnc12` [Example 30, 2-[7-[(3-methyl-1H-pyrazolo[4,3-b]pyridin-6-yl)amino]-1-oxo-isoindolin-2-yl]-N-(2,2,2-trifluoroethyl)acetamide]?
**A.** DDR1 pIC50 (Recombinant human DDR1): A (pIC50>8); IC50 (Recombinant human DDR2): 10 to 100 nM

**Q.** Which “DDR1 pIC50” value (Recombinant human DDR1) does the source give for `Cn1ncc2cc(Nc3cccc4c3C(=O)N(CC(=O)N3CCOCC3C(F)(F)F)C4)ccc21` (centres unmarked) [Example 31, 7-[(1-methylindazol-5-yl)amino]-2-[2-oxo-2-[3-(trifluoromethyl)morpholin-4-yl]ethyl]isoindolin-1-one] here?
**A.** A (pIC50>8)

**Q.** And the IC50 (Recombinant human DDR2)?
**A.** 10 to 100 nM

**Q.** With `Cc1n[nH]c2cc(Nc3cccc4c3C(=O)N(CC(=O)NCC(F)(F)F)C4)cc(Cl)c12` [Example 91, 2-[7-[(4-chloro-3-methyl-1H-indazol-6-yl)amino]-1-oxo-isoindolin-2-yl]-N-(2,2,2-trifluoroethyl)acetamide] as the compound, how does the IC50 (Recombinant human DDR1) read?
**A.** 10 to 100 nM
